Source: ChEMBL document CHEMBL1156989, “Discovery of novel small molecule orally bioavailable C-X-C chemokine receptor 4 antagonists that are potent inhibitors of T-tropic (X4) HIV-1 replication” (J Med Chem, 2010)
One block for each compound: values may come before it.

Key:
[1] = target: C-C chemokine receptor type 5 (Homo sapiens, UniProt P51681); assay: Displacement of radiolabeled MIP1beta from CCR5 receptor
[2] = target: C-C chemokine receptor type 2 (Homo sapiens, UniProt P41597); assay: Displacement of radiolabeled MCP1 from CCR2b receptor
[3] = Oral bioavailability in dog at 6 mg/kg; format: ADME, organism-based, Canis lupus familiaris; settings: in vivo
[4] = target: T1, C-C chemokine receptor type 1 (Homo sapiens, UniProt P32246); assay: Displacement of radiolabeled MIP1alpha from CCR1 receptor
T1 sequence (P32246 whole entry): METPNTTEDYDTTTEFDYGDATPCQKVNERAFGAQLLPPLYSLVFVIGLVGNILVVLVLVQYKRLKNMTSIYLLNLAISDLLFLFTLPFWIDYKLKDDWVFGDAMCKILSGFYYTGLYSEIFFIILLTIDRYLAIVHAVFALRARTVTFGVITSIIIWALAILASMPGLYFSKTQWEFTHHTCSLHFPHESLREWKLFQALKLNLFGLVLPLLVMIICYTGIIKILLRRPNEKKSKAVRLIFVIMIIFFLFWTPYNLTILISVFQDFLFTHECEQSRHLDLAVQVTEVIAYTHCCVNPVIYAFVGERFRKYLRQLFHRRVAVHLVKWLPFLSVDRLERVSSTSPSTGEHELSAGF

[5] = tested on: Human immunodeficiency virus 1; assay: Antiviral activity against HIV1 NL4.3 infected in human PBMC assessed as inhibition of virus-induced cytopathicity; format: functional, organism-based; settings: Human immunodeficiency virus 1, NL4.3
[6] = tested on: Human immunodeficiency virus 1; assay: Antiviral activity against HIV1 NL4.3 infected in human MT4 cells expressing CD4 and CXCR4 assessed as inhibition of virus-induced cytopathicity; format: functional, organism-based; settings: Human immunodeficiency virus 1, NL4.3, MT4
[7] = tested on: Rattus norvegicus; assay: Half life in rat at 5 mg/kg, iv; format: ADME, organism-based; parameters: dose 5 mg/kg, route intravenous; settings: in vivo
[8] = tested on: Human immunodeficiency virus 1; assay: Antiviral activity against HIV1 NL4.3 infected in human MT4 cells assessed as inhibition of virus-induced cytopathicity in presence of 10% human serum; format: functional, organism-based; settings: Human immunodeficiency virus 1, NL4.3, MT4
[9] = tested on: Rattus norvegicus; assay: Volume of distribution in rat at 5 mg/kg, iv; format: ADME, organism-based; parameters: dose 5 mg/kg, route intravenous; settings: in vivo
[10] = target: T2, C-X-C chemokine receptor type 2 (Homo sapiens, UniProt P25025); assay: Displacement of radiolabeled IL8 from CXCR2 receptor
T2 sequence (P25025 whole entry): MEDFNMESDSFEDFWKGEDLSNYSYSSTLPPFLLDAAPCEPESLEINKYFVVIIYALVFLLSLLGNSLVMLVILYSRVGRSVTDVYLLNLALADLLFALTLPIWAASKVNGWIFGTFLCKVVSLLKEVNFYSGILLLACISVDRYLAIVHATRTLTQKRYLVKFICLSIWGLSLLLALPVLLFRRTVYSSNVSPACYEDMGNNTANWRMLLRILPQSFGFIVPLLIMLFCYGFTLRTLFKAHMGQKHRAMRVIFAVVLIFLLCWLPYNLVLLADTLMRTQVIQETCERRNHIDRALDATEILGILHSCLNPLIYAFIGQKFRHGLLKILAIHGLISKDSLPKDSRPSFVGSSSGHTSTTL

[11] = Cmax in rat; format: ADME, organism-based; settings: in vivo
[12] = Oral bioavailability in rat at 100 mg/kg; format: ADME, organism-based; settings: in vivo
[13] = Cmax in dog; format: ADME, organism-based, Canis lupus familiaris; settings: in vivo
[14] = target: T3, C-C chemokine receptor type 4 (Homo sapiens, UniProt P51679); assay: Displacement of radiolabeled TARC from CCR4 receptor
T3 sequence (P51679 whole entry): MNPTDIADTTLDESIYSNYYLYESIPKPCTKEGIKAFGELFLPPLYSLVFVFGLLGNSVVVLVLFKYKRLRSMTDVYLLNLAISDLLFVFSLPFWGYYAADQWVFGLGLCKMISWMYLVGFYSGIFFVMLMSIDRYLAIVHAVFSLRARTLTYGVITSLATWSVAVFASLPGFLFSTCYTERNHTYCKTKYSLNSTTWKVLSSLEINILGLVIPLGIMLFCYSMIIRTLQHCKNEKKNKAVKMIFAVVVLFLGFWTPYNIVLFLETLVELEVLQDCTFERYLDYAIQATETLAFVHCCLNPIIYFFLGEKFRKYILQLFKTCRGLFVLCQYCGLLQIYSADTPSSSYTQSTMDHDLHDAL

[15] = target: T4, C-X-C chemokine receptor type 1 (Homo sapiens, UniProt P25024); assay: Displacement of radiolabeled IL8 from CXCR1 receptor
T4 sequence (P25024 whole entry): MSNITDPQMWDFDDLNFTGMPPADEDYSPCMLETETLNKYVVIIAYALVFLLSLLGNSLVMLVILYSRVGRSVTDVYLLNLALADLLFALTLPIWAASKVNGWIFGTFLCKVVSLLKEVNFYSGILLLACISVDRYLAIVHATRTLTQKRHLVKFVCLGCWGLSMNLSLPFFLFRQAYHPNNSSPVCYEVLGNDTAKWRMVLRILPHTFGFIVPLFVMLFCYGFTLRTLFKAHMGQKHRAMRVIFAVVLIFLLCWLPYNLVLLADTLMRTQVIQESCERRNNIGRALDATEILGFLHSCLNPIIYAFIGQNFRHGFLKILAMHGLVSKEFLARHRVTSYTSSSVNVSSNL

[16] = target: T5, C-X-C chemokine receptor type 4 (Homo sapiens, UniProt P61073); assay: Antagonist activity at CXCR4 in human CEM-CCRF cells assessed as inhibition of SDF-1-induced calcium flux; format: functional, cell-based
[17] = Cytotoxicity against human MT4 cells expressing CD4 and CXCR4 assessed as cell viability; settings: MT4 cells expressing CD4 and CXCR4
[18] = tested on: Human immunodeficiency virus 1; assay: Ratio of IC50 for HIV1 NL4.3 infected in human PBMC to IC50 for HIV1 NL4.3 infected in human MT4 cells; format: functional
[19] = tested on: Human immunodeficiency virus 1; assay: Antiviral activity against HIV1 3B infected in human MT-4 cells assessed as inhibition of virus-induced cytopathicity; settings: Human immunodeficiency virus 1, 3B
[20] = tested on: Human immunodeficiency virus 1; assay: Ratio of IC90 for HIV1 NL4.3 infected in human PBMC to IC90 for HIV1 NL4.3 infected in human MT4 cells; format: functional
[21] = target: T5, C-X-C chemokine receptor type 4; assay: Inhibition of anti-CXCR4 12G5 monoclonal antibody to CXCR4 in human SUP-T1 cells pretreated for 30 mins by flow cytometry; format: cell-based
[22] = tested on: Canis familiaris; assay: Half life in dog at 5 mg/kg, iv; format: ADME, organism-based, Canis lupus familiaris; parameters: dose 5 mg/kg, route intravenous; settings: in vivo
[23] = tested on: Rattus norvegicus; assay: Half life in rat at 10 mg/kg, iv; format: ADME, organism-based; parameters: dose 10 mg/kg, route intravenous; settings: in vivo
[24] = Oral bioavailability in rat at 40 mg/kg; format: ADME, organism-based; settings: in vivo
[25] = Oral bioavailability in dog at 25 mg/kg; format: ADME, organism-based, Canis lupus familiaris; settings: in vivo
[26] = tested on: Canis familiaris; assay: Volume of distribution in dog at 5 mg/kg, iv; format: ADME, organism-based, Canis lupus familiaris; parameters: dose 5 mg/kg, route intravenous; settings: in vivo
[27] = tested on: Rattus norvegicus; assay: Volume of distribution in rat at 10 mg/kg, iv; format: ADME, organism-based; parameters: dose 10 mg/kg, route intravenous; settings: in vivo
[28] = tested on: Human immunodeficiency virus 1; assay: Antiviral activity against HIV1 3B infected in human MT4 cells assessed as inhibition of virus-induced cytopathicity in presence of 10% human serum; format: functional, organism-based; settings: Human immunodeficiency virus 1, 3B

T5 sequence (P61073 whole entry): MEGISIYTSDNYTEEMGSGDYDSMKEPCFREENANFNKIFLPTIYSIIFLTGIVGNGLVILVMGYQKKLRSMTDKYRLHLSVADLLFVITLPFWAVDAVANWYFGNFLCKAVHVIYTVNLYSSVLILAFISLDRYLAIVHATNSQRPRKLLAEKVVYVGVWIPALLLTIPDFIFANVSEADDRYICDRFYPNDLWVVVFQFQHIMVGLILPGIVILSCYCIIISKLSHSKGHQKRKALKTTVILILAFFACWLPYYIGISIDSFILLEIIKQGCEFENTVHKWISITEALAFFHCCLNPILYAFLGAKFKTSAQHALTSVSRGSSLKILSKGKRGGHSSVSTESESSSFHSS
Chain of C-C chemokine receptor type 2 (P41597 whole entry): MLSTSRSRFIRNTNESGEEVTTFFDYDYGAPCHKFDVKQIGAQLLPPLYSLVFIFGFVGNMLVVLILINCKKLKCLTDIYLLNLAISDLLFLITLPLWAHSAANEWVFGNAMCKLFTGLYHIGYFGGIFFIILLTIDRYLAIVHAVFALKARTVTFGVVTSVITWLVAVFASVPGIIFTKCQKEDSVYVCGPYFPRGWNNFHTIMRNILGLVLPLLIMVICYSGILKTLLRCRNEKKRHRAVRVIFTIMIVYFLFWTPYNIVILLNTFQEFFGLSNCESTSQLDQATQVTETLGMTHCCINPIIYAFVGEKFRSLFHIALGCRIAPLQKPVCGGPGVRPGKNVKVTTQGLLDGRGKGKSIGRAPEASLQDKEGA
Chain of C-C chemokine receptor type 5 (P51681 whole entry): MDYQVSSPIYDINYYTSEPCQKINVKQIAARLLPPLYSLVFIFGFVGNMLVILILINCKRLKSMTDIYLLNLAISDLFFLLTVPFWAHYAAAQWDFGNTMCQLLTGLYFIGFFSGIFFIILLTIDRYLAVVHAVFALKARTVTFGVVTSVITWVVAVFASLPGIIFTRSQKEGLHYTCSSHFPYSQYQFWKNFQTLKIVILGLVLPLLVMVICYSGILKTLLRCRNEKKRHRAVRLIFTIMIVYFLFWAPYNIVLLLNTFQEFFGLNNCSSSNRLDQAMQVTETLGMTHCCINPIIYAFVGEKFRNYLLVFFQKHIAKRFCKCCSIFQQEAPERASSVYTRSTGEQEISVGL

IC50 [1]: > 10000 nM
IC50 [2]: > 10000 nM
bioavailability [3]: 80%
IC50 [4]: > 10000 nM
IC50 [5]: 9 nM
IC90 [5]: 26 nM
IC50 [6]: 2 nM
t1/2 [7]: 3.5 h
IC50 [8]: 16 nM
Vd [9]: 14.3 L/kg
IC50 [10]: > 10000 nM
Cmax [11]: 1200 ng/mL
bioavailability [12]: 22%
Cmax [13]: 1700 ng/mL
IC50 [14]: > 10000 nM
IC50 [15]: > 10000 nM
SMILES: NCCCCN(Cc1nc2ccccc2[nH]1)[C@H]1CCCc2cccnc21 [MAVORIXAFOR]

IC50 [16]: 1400 nM
IC50 [6]: 575 nM
SMILES: NCc1cccc(CN(Cc2nc3ccccc3[nH]2)C2CCCc3cccnc32)c1 (stereo not drawn)
CC50 [17]: 45900 nM

IC50 [16]: 1370 nM
IC50 [6]: 1370 nM
SMILES: NCCN(Cc1nc2ccccc2[nH]1)C1CCCc2cccnc21 (stereo not drawn)
CC50 [17]: 6860 nM

IC50 [5]: 277 nM
IC50 [6]: 60 nM
IC50 [19]: 60 nM
IC50 [21]: 250 nM
SMILES: c1ccc(CNCc2ccc(CN(Cc3nc4ccccc4[nH]3)C3CCCc4cccnc43)cc2)nc1 (stereo not drawn)
Ratio IC50 [18]: 5
Ratio [20]: 4
CC50 [17]: 23000 nM

IC50 [16]: 50 nM
IC50 [6]: 21 nM
SMILES: NCc1ccccc1CN(Cc1nc2ccccc2[nH]1)C1CCCc2cccnc21 (stereo not drawn)
CC50 [17]: 29600 nM

IC50 [16]: 87 nM
IC50 [6]: 51 nM
SMILES: CN(C)CCCCN(Cc1nc2ccccc2[nH]1)C1CCCc2cccnc21 (stereo not drawn)
CC50 [17]: 29500 nM

IC50 [6]: 1080 nM
IC50 [21]: 29200 nM
SMILES: c1ccc(CNCc2ccc(CN(Cc3nc4ccccc4[nH]3)[C@@H]3CCCc4cccnc43)cc2)nc1

IC50 [1]: > 10000 nM
t1/2 [22]: 5.7 h
IC50 [2]: > 10000 nM
IC50 [4]: > 10000 nM
IC90 [5]: 559 nM
t1/2 [23]: 2.9 h
bioavailability [24]: 48%
IC50 [6]: 30 nM
bioavailability [25]: 55%
Vd [26]: 17.5 L/kg
IC50 [8]: 69 nM
Vd [27]: 5.5 L/kg
IC50 [10]: > 10000 nM
Cmax [11]: 4500 ng/mL
IC90 [19]: 108 nM
IC50 [28]: 81 nM
Cmax [13]: 800 ng/mL
IC50 [14]: > 10000 nM
IC50 [15]: > 10000 nM
IC50 [21]: 120 nM
SMILES: c1ccc(CNCc2ccc(CN(Cc3nc4ccccc4[nH]3)[C@H]3CCCc4cccnc43)cc2)nc1

IC50 [16]: 77 nM
IC50 [6]: 15 nM
SMILES: NC/C=C\CN(Cc1nc2ccccc2[nH]1)C1CCCc2cccnc21 (stereo not drawn)
CC50 [17]: 51900 nM

IC50 [16]: 119 nM
IC50 [6]: 167 nM
SMILES: NCc1ccc(CN(Cc2nc3ccccc3[nH]2)C2CCCc3cccnc32)cc1 (stereo not drawn)
CC50 [17]: 238000 nM
